Assay results: ChEMBL document CHEMBL5154842, “Unique Carbazole-Oxadiazole Derivatives as New Potential Antibiotics for Combating Gram-Positive and -Negative Bacteria” (J Med Chem, 2022)
In brackets after ≈: the same amount, converted by molar mass.

How the values were obtained:
Assay type in all cases: functional
Staphylococcus aureus [1] = experiment: Antibacterial activity against methicillin-resistant Staphylococcus aureus N315 assessed as inhibition of bacterial growth incubated for 24 hrs by CLSI protocol based two fold serial dilution method
Enterococcus faecalis = experiment: Antibacterial activity against Enterococcus faecalis assessed as inhibition of bacterial growth incubated for 24 hrs by CLSI protocol based two fold serial dilution method
Staphylococcus aureus [2] = experiment: Antibacterial activity against Staphylococcus aureus assessed as inhibition of bacterial growth incubated for 24 hrs by CLSI protocol based two fold serial dilution method
Staphylococcus aureus [3] = experiment: Antibacterial activity against Staphylococcus aureus 25923 assessed as inhibition of bacterial growth incubated for 24 hrs by CLSI protocol based two fold serial dilution method
Staphylococcus aureus [4] = experiment: Antibacterial activity against Staphylococcus aureus 29213 assessed as inhibition of bacterial growth incubated for 24 hrs by CLSI protocol based two fold serial dilution method
Klebsiella pneumoniae = experiment: Antibacterial activity against Klebsiella pneumonia assessed as inhibition of bacterial growth incubated for 24 hrs by CLSI protocol based two fold serial dilution method
Escherichia coli [5] = experiment: Antibacterial activity against Escherichia coli assessed as inhibition of bacterial growth incubated for 24 hrs by CLSI protocol based two fold serial dilution method
Escherichia coli [6] = experiment: Antibacterial activity against Escherichia coli 25922 assessed as inhibition of bacterial growth incubated for 24 hrs by CLSI protocol based two fold serial dilution method
Pseudomonas aeruginosa [7] = experiment: Antibacterial activity against Pseudomonas aeruginosa assessed as inhibition of bacterial growth incubated for 24 hrs by CLSI protocol based two fold serial dilution method
Pseudomonas aeruginosa [8] = experiment: Antibacterial activity against Pseudomonas aeruginosa ATCC 27853 assessed as inhibition of bacterial growth incubated for 24 hrs by CLSI protocol based two fold serial dilution method
Acinetobacter baumannii = experiment: Antibacterial activity against Acinetobacter baumannii assessed as inhibition of bacterial growth incubated for 24 hrs by CLSI protocol based two fold serial dilution method

Compound | MIC (Staphylococcus aureus [1]) | MIC (Enterococcus faecalis) | MIC (Staphylococcus aureus [2]) | MIC (Staphylococcus aureus [3]) | MIC (Staphylococcus aureus [4]) | MIC (Klebsiella pneumoniae) | MIC (Escherichia coli [5]) | MIC (Escherichia coli [6]) | MIC (Pseudomonas aeruginosa [7]) | MIC (Pseudomonas aeruginosa [8]) | MIC (Acinetobacter baumannii)
Sc1nnc(Cn2c3ccccc3c3c(OCCN4CCOCC4)cccc32)o1 | 128 mg/L (≈ 312 µM) | 64 mg/L (≈ 156 µM) | 128 mg/L (≈ 312 µM) | 128 mg/L (≈ 312 µM) | 32 mg/L (≈ 78 µM) | 64 mg/L (≈ 156 µM) | 64 mg/L (≈ 156 µM) | 128 mg/L (≈ 312 µM) | 256 mg/L (≈ 624 µM) | 64 mg/L (≈ 156 µM) | 128 mg/L (≈ 312 µM)
CCCCOc1cccc2c1c1ccccc1n2Cc1nnc(S)o1 | 256 mg/L (≈ 724 µM) | 4 mg/L (≈ 11.3 µM) | 256 mg/L (≈ 724 µM) | 256 mg/L (≈ 724 µM) | 256 mg/L (≈ 724 µM) | 256 mg/L (≈ 724 µM) | 256 mg/L (≈ 724 µM) | 256 mg/L (≈ 724 µM) | 256 mg/L (≈ 724 µM) | 256 mg/L (≈ 724 µM) | 0.25 mg/L (≈ 0.707 µM)
c1ccc2c(c1)[nH]c1cccc(OCc3nnn[nH]3)c12 | 0.5 mg/L (≈ 1.88 µM) | 64 mg/L (≈ 241 µM) | 128 mg/L (≈ 483 µM) | 128 mg/L (≈ 483 µM) | 128 mg/L (≈ 483 µM) | 64 mg/L (≈ 241 µM) | 128 mg/L (≈ 483 µM) | 128 mg/L (≈ 483 µM) | 128 mg/L (≈ 483 µM) | 0.5 mg/L (≈ 1.88 µM) | 128 mg/L (≈ 483 µM)
CC(C)=CCOc1cccc2c1c1ccccc1n2Cc1nnc(S)o1 | 1 mg/L (≈ 2.74 µM) | 4 mg/L (≈ 10.9 µM) | 256 mg/L (≈ 700 µM) | 4 mg/L (≈ 10.9 µM) | 4 mg/L (≈ 10.9 µM) | 4 mg/L (≈ 10.9 µM) | 8 mg/L (≈ 21.9 µM) | 4 mg/L (≈ 10.9 µM) | 256 mg/L (≈ 700 µM) | 2 mg/L (≈ 5.47 µM) | 8 mg/L (≈ 21.9 µM)
Fc1ccc(COc2cccc3c2c2ccccc2n3Cc2nnc(S)o2)c(F)c1 | 32 mg/L (≈ 75.6 µM) | 64 mg/L (≈ 151 µM) | 128 mg/L (≈ 302 µM) | 64 mg/L (≈ 151 µM) | 64 mg/L (≈ 151 µM) | 32 mg/L (≈ 75.6 µM) | 128 mg/L (≈ 302 µM) | 16 mg/L (≈ 37.8 µM) | 256 mg/L (≈ 605 µM) | 0.25 mg/L (≈ 0.59 µM) | 64 mg/L (≈ 151 µM)
Fc1cccc(COc2cccc3c2c2ccccc2n3Cc2nnc(S)o2)c1 | 64 mg/L (≈ 158 µM) | 32 mg/L (≈ 78.9 µM) | 128 mg/L (≈ 316 µM) | 32 mg/L (≈ 78.9 µM) | 128 mg/L (≈ 316 µM) | 32 mg/L (≈ 78.9 µM) | 128 mg/L (≈ 316 µM) | 16 mg/L (≈ 39.5 µM) | 256 mg/L (≈ 631 µM) | 0.5 mg/L (≈ 1.23 µM) | 64 mg/L (≈ 158 µM)
Fc1ccccc1COc1cccc2c1c1ccccc1n2Cc1nnc(S)o1 | 16 mg/L (≈ 39.5 µM) | 256 mg/L (≈ 631 µM) | 256 mg/L (≈ 631 µM) | 256 mg/L (≈ 631 µM) | 64 mg/L (≈ 158 µM) | 32 mg/L (≈ 78.9 µM) | 128 mg/L (≈ 316 µM) | 16 mg/L (≈ 39.5 µM) | 256 mg/L (≈ 631 µM) | 0.25 mg/L (≈ 0.617 µM) | 64 mg/L (≈ 158 µM)
CCCCCCCCCCCCOc1cccc2c1c1ccccc1n2Cc1nnc(S)o1 | 256 mg/L (≈ 550 µM) | 256 mg/L (≈ 550 µM) | 256 mg/L (≈ 550 µM) | 256 mg/L (≈ 550 µM) | 128 mg/L (≈ 275 µM) | 256 mg/L (≈ 550 µM) | 256 mg/L (≈ 550 µM) | 256 mg/L (≈ 550 µM) | 256 mg/L (≈ 550 µM) | 256 mg/L (≈ 550 µM) | 256 mg/L (≈ 550 µM)
CCn1c2ccccc2c2nnc(SCc3nnc(S)o3)nc21 | 256 mg/L (≈ 743 µM) | 256 mg/L (≈ 743 µM) | 256 mg/L (≈ 743 µM) | 256 mg/L (≈ 743 µM) | 256 mg/L (≈ 743 µM) | 256 mg/L (≈ 743 µM) | 256 mg/L (≈ 743 µM) | 256 mg/L (≈ 743 µM) | 256 mg/L (≈ 743 µM) | 256 mg/L (≈ 743 µM) | 256 mg/L (≈ 743 µM)
CCSc1nnc2c3ccccc3n(Cc3nnc(S)o3)c2n1 | 256 mg/L (≈ 743 µM) | 256 mg/L (≈ 743 µM) | 256 mg/L (≈ 743 µM) | 256 mg/L (≈ 743 µM) | 256 mg/L (≈ 743 µM) | 256 mg/L (≈ 743 µM) | 256 mg/L (≈ 743 µM) | 256 mg/L (≈ 743 µM) | 256 mg/L (≈ 743 µM) | 256 mg/L (≈ 743 µM) | 256 mg/L (≈ 743 µM)
CCn1cc(C(=O)O)c(=O)c2cc(F)c(N3CCNCC3)cc21 [NORFLOXACIN] | 0.5 mg/L (≈ 1.57 µM) | 2 mg/L (≈ 6.26 µM) | 2 mg/L (≈ 6.26 µM) | 1 mg/L (≈ 3.13 µM) | 4 mg/L (≈ 12.5 µM) | 4 mg/L (≈ 12.5 µM) | 0.25 mg/L (≈ 0.783 µM) | 2 mg/L (≈ 6.26 µM) | 8 mg/L (≈ 25.1 µM) | 128 mg/L (≈ 401 µM) | 128 mg/L (≈ 401 µM)
CC(C)=CCn1c2ccccc2c2c(OCc3nnn[nH]3)cccc21 | 16 mg/L (≈ 48 µM) | 256 mg/L (≈ 768 µM) | 256 mg/L (≈ 768 µM) | 64 mg/L (≈ 192 µM) | 32 mg/L (≈ 96 µM) | 32 mg/L (≈ 96 µM) | 32 mg/L (≈ 96 µM) | 128 mg/L (≈ 384 µM) | 256 mg/L (≈ 768 µM) | 0.5 mg/L (≈ 1.5 µM) | 32 mg/L (≈ 96 µM)
Clc1cnc(COc2cccc3[nH]c4ccccc4c23)s1 | 256 mg/L (≈ 813 µM) | 256 mg/L (≈ 813 µM) | 256 mg/L (≈ 813 µM) | 256 mg/L (≈ 813 µM) | 256 mg/L (≈ 813 µM) | 256 mg/L (≈ 813 µM) | 256 mg/L (≈ 813 µM) | 256 mg/L (≈ 813 µM) | 256 mg/L (≈ 813 µM) | 256 mg/L (≈ 813 µM) | 256 mg/L (≈ 813 µM)
